According to patent publication US8017775B2, “1-2-dihydroquinoline derivative having glucocorticoid receptor binding activity” (Santen Pharmaceutical Co., Ltd., priority 2005, dated 2011):

Biological target: T1, Recombinant human GR (Homo sapiens, UniProt P04150)
T1 construct: purchased Invitrogen P2816
T1 sequence (P04150 1-777): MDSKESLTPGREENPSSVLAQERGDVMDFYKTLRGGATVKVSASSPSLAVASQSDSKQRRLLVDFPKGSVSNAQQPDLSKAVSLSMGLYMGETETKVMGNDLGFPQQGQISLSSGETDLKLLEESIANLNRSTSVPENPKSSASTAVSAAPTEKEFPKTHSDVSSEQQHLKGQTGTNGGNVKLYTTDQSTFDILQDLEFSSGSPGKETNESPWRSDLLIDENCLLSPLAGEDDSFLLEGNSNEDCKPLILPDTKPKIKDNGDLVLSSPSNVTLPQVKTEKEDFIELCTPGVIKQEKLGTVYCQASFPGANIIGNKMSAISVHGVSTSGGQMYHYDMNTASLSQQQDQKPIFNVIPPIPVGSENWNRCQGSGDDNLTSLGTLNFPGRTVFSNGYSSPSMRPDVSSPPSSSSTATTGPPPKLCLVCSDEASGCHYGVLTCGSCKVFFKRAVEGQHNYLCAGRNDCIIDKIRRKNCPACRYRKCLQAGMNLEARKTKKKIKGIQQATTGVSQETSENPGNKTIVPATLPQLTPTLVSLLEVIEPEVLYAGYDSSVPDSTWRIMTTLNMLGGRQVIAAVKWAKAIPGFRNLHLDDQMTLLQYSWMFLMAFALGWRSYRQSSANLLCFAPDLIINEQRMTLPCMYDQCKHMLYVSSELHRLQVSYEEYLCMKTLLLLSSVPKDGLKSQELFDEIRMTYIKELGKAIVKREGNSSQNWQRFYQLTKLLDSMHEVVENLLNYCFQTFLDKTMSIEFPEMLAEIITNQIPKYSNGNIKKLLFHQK
Assay: GR competitor assay by fluorescence polarization (GR binding ratio)
Details: positive control 2 mM dexamethasone, a GR binding ratio of 100% or more is indicated by 100%
Protocol: 1. Evaluation Test for Binding Activity to Glucocorticoid Receptor (hereinafter referred to as “GR”)
In order to evaluate a binding activity to GR, a receptor competitor assay was carried out by a fluorescence polarization method. In the assay, a GR competitor assay kit (manufactured by Invitrogen, cat No. P2816) was used, and a procedure was carried out according to the protocol attached to the kit. Hereinafter, the specific method will be described.
GR screening buffer: A buffer containing 10 mM potassium phosphate (pH 7.4), 20 mM sodium molybdate (Na2MoO4), 0.1 mM ethylene diamine tetraacetic acid (EDTA), 5 mM dithiothreitol (DTT), 0.1 mM stabilizing peptide and 2% dimethylsulfoxide was prepared.
4×GS1 solution: Fluormone™ GS1, which is a fluorescent glucocorticoid ligand, was diluted with GR screening buffer, whereby a 4 nM solution was prepared.
4×GR solution: Recombinant human GR was diluted with GR screening buffer, whereby a 16 nM solution was prepared.
After a test compound was dissolved in dimethylsulfoxide, the resulting solution was diluted with GR screening buffer, whereby a 20 μM test compound solution was prepared.
1) The test compound solution was added in an amount of 25 μL or 10 μL into each well of a 96-well or 384-well plate, and then, 4×GS1 solution and 4×GR solution were added in an amount of 12.5 μL or 5 μL into each well, respectively.
2) The plate was incubated in a dark place at room temperature for 2 to 4 hours.
3) By using a multimode plate reader, Analyst™ HT (manufactured by LJL Biosystems), fluorescence polarization of each well was measured. As the blank, a well containing GR screening buffer in place of the test compound and 4×GS1 solution was used.
4) The same procedure as that in the above 1) to 3) was carried out except that GR screening buffer was used in place of the test compound solution, and the obtained result was taken as the negative control.
5) The same procedure as that in the above 1) to 3) was carried out except that 2 mM dexamethasone was used in place of the test compound solution, and the obtained result was taken as the positive control.
A GR binding ratio (%) was calculated from the following equation.
GR binding ratio (%)=100×[1−(fluorescence polarization of test compound solution−fluorescence polarization of positive control solution)/(fluorescence polarization of negative control solution−fluorescence polarization of positive control solution)]

GR Binding ratio (%) | Compound
≥ 100 | COc1ccc(F)cc1-c1ccc2c(c1COC(=O)c1ccc(C)s1)C(C)=CC(C)(C)N2 [Compound 12-76, 6-(5-Fluoro-2-methoxyphenyl)-5-(5-methylthiophen-2-ylcarbonyloxymethyl)-2,2,4-trimethyl-1,2-dihydroquinoline]
99 | CCc1cccc(NCc2c(-c3ccc(F)cc3OC)ccc3c2C(C)=CC(C)(C)N3)c1 [Compound 6-40, 5-(3-Ethylphenylaminomethyl)-6-(4-fluoro-2-methoxyphenyl)-2,2,4-trimethyl-1,2-dihydroquinoline]
98 | COc1cc(F)c(F)cc1-c1ccc2c(c1COc1cc(F)ccc1C)C(C)=CC(C)(C)N2 [Compound 3-57, 6-(4,5-Difluoro-2-methoxyphenyl)-5-(5-fluoro-2-methylphenoxymethyl)-2,2,4-trimethyl-1,2-dihydroquinoline]
≥ 100 | COc1ccc(Cl)cc1-c1ccc2c(c1COc1cc(F)ccc1C)C(C)=CC(C)(C)N2 [Compound 14-13, 6-(5-Chloro-2-methoxyphenyl)-5-(5-fluoro-2-methylphenoxymethyl)-2,2,4-trimethyl-1,2-dihydroquinoline]
≥ 100 | COc1cc(F)ccc1-c1ccc2c(c1COC(=O)c1ccc(Cl)s1)C(C)=CC(C)(C)N2 [Compound 12-22, 5-[(5-Chlorothiophen-2-yl)carbonyloxymethyl]-6-(4-fluoro-2-methoxyphenyl)-2,2,4-trimethyl-1,2-dihydroquinoline]
≥ 100 | C=CCc1ccccc1OCc1c(-c2ccc(F)cc2OC)ccc2c1C(C)=CC(C)(C)N2 [Compound 3-74, 6-(4-Fluoro-2-methoxyphenyl)-5-(2-allylphenoxymethyl)-2,2,4-trimethyl-1,2-dihydroquinoline]
≥ 100 | COc1cc(F)ccc1-c1ccc2c(c1COC(=O)c1ccc(C)s1)C(C)=CC(C)(C)N2 [Compound 12-19, 6-(4-Fluoro-2-methoxyphenyl)-5-[(5-methylthiophen-2-yl)carbonyloxymethyl]-2,2,4-trimethyl-1,2-dihydroquinoline]
≥ 100 | COc1cc(F)ccc1-c1ccc2c(c1COc1cc([N+](=O)[O-])ccc1C#N)C(C)=CC(C)(C)N2 [Compound 3-91, 5-(2-Cyano-5-nitrophenoxymethyl)-6-(4-fluoro-2-methoxyphenyl)-2,2,4-trimethyl-1,2-dihydraquinoline]
99 | COc1cc(F)ccc1-c1ccc2c(c1COC(=O)c1ccc3c(c1)OCO3)C(C)=CC(C)(C)N2 [Compound 12-42, 5-[(1,3-Benzodioxol-5-yl)carbonyloxymethyl]-6-(4-fluoro-2-methoxyphenyl)-2,2,4-trimethyl-1,2-dihydroquinoline]
≥ 100 | COc1cc(F)c(F)cc1-c1ccc2c(c1COC(=O)c1ccc(C)s1)C(C)=CC(C)(C)N2 [Compound 12-54, 6-(4,5-Difluoro-2-methoxyphenyl)-5-[(5-methylthiophen-2-yl)carbonyloxymethyl]-2,2,4-trimethyl-1,2-dihydroquinoline]
≥ 100 | COc1ccc(Cl)cc1-c1ccc2c(c1COc1cc([N+](=O)[O-])ccc1C)C(C)=CC(C)(C)N2 [Compound 14-12, 6-(5-Chloro-2-methoxyphenyl)-5-(2-methyl-5-nitrophenoxymethyl)-2,2,4-trimethyl-1,2-dihydroquinoline]
≥ 100 | COc1ccc(Cl)cc1-c1ccc2c(c1COc1ccccc1CCO)C(C)=CC(C)(C)N2 [Compound 3-98, 6-(5-Chloro-2-methoxyphenyl)-5-[2-(2-Hydroxyethyl)phenoxymethyl]-2,2,4-trimethyl-1,2-dihydroquinoline]
≥ 100 | COc1ccc(C(F)(F)F)cc1-c1ccc2c(c1COC(=O)c1ccc(C)s1)C(C)=CC(C)(C)N2 [Compound 12-73, 6-(2-Methoxy-5-trifluoromethylphenyl)-5-(5-methylthiophen-2-ylcarbonyloxymethyl)-2,2,4-trimethyl-1,2-dihydroquinoline]
96 | CCc1ccccc1NCc1c(-c2ccc(F)cc2OC)ccc2c1C(C)=CC(C)(C)N2 [Compound 6-45, 5-(2-Ethylphenylaminomethyl)-6-(4-fluoro-2-methoxyphenyl)-2,2,4-trimethyl-1,2-dihydroquinoline]
≥ 100 | COc1ccccc1NCc1c(-c2ccc(F)cc2OC)ccc2c1C(C)=CC(C)(C)N2 [Compound 6-20, 6-(4-Fluoro-2-methoxyphenyl)-5-(2-methoxyphenylaminomethyl)-2,2,4-trimethyl-1,2-dihydroquinoline]
97 | COc1cc(F)ccc1-c1ccc2c(c1COc1cccc(C)c1)C(C)=CC(C)(C)N2 [Compound 3-21, 6-(4-Fluoro-2-methoxyphenyl)-5-(3-methylphenoxymethyl)-2,2,4-trimethyl-1,2-dihydroquinoline]
≥ 100 | COc1ccc(C(=O)OCc2c(-c3ccc(F)cc3OC)ccc3c2C(C)=CC(C)(C)N3)s1 [Compound 12-33, 6-(4-Fluoro-2-methoxyphenyl)-5-[(5-methoxythiophen-2-yl)carbonyloxymethyl]-2,2,4-trimethyl-1,2-dihydroquinoline]
95 | COc1cc(F)ccc1-c1ccc2c(c1COc1cc(Cl)ccc1Cl)C(C)=CC(C)(C)N2 [Compound 3-85, 5-(2,5-Diclorophenoxymethyl)-6-(4-fluoro-2-methoxyphenyl)-2,2,4-trimethyl-1,2-dihydroquinoline]
≥ 100 | COc1cc(F)ccc1-c1ccc2c(c1COc1ccccc1C(C)C)C(C)=CC(C)(C)N2 [Compound 3-69, 5-(2-Isopropylphenoxymethyl)-6-(4-fluoro-2-methoxyphenyl)-2,2,4-trimethyl-1,2-dihydroquinoline]
98 | COc1cc(F)ccc1-c1ccc2c(c1COc1cc(Cl)ccc1C)C(C)=CC(C)(C)N2 [Compound 3-56, 6-(4-Fluoro-2-methoxyphenyl)-5-(5-chloro-2-methylphenoxymethyl)-2,2,4-trimethyl-1,2-dihydroquinoline]
99 | C=CCc1ccccc1OCc1c(-c2cc(C)ccc2OC)ccc2c1C(C)=CC(C)(C)N2 [Compound 14-21, 5-(2-Allylphenoxymethyl)-6-(2-methoxy-5-methylphenyl)-2,2,4-trimethyl-1,2-dihydroquinoline]
≥ 100 | COC(=O)Cc1ccccc1OCc1c(-c2ccc(F)cc2OC)ccc2c1C(C)=CC(C)(C)N2 [Compound 14-1, 6-(4-Fluoro-2-methoxyphenyl)-5-(2-methoxycarbonylmethylphenoxymethyl)-2,2,4-trimethyl-1,2-dihydroquinoline]
≥ 100 | COc1cc(O)ccc1-c1ccc2c(c1COc1cc(F)ccc1C)C(C)=CC(C)(C)N2 [Compound 5-3, 5-(5-Fluoro-2-methylphenoxymethyl)-6-(4-hydroxy-2-methoxyphenyl)-2,2,4-trimethyl-1,2-dihydroquinoline]
≥ 100 | COc1cc(F)ccc1-c1ccc2c(c1CNc1ccccc1C(C)C)C(C)=CC(C)(C)N2 [Compound 6-47, 6-(4-Fluoro-2-methoxyphenyl)-5-(2-isopropylphenylaminomethyl)-2,2,4-trimethyl-1,2-dihydroquinoline]

Compound | GR Binding ratio (%)
COc1ccc(C(=O)OCc2c(-c3cc(F)ccc3OC)ccc3c2C(C)=CC(C)(C)N3)cc1 [Compound 12-75, 6-(5-Fluoro-2-methoxyphenyl)-5-(4-metoxybenzoyloxymethyl)-2,2,4-trimethyl-1,2-dihydroquinoline] | ≥ 100
